Where two headings read alike, the source gives them in different places.
Key:
[1] = test system: MCF7 breast cancer cell lines; test: Cell viability analysis, WST-8 assay, MCF7; settings: Homo sapiens, MCF7, 72 h; for viability at 1 µM: read-out: Cell viability (%) WST-8, MCF7 (1 µM), compound 1 µM, 72 hours; for viability at 1.25 µM: read-out: Cell viability (%) WST-8, MCF7, footnote a: concentration 1.25 µM, 72 hours; for viability at 1.1 µM: read-out: Cell viability (%) WST-8, MCF7, footnote d: concentration 1.1 µM, 72 hours
Experimental: (§1) MCF7 breast cancer cell lines and MCF10A normal breast cancer cell lines were treated with serial dilutions of the compounds of the present invention ranging from 1 µM to 15.63 nM for 72 hours. Cell viability was measured by the WST-8 assay (Cyto XTM cell viability assay kit; LPS solution, Daejeon, Korea) according to the manufacturer's instructions.

[2] = target: T1, Recombinant GST-TAG-MASTL (Homo sapiens, UniProt Q96GX5); test: HTRF-based kinase assay (HTRF KinEASE assay kit); format: biochemical; settings: for IC50: HTRF, read-out: IC50(nM) MASTL activity; for activity at 1 µM: read-out: MASTL activity (%) HTRF (1 µM); for activity at 10 µM: footnote b: concentration 10 µM, read-out: MASTL activity (%) HTRF
T1 construct: GST; purchased Thermo Fisher Scientific
T1 sequence (Q96GX5 1-879): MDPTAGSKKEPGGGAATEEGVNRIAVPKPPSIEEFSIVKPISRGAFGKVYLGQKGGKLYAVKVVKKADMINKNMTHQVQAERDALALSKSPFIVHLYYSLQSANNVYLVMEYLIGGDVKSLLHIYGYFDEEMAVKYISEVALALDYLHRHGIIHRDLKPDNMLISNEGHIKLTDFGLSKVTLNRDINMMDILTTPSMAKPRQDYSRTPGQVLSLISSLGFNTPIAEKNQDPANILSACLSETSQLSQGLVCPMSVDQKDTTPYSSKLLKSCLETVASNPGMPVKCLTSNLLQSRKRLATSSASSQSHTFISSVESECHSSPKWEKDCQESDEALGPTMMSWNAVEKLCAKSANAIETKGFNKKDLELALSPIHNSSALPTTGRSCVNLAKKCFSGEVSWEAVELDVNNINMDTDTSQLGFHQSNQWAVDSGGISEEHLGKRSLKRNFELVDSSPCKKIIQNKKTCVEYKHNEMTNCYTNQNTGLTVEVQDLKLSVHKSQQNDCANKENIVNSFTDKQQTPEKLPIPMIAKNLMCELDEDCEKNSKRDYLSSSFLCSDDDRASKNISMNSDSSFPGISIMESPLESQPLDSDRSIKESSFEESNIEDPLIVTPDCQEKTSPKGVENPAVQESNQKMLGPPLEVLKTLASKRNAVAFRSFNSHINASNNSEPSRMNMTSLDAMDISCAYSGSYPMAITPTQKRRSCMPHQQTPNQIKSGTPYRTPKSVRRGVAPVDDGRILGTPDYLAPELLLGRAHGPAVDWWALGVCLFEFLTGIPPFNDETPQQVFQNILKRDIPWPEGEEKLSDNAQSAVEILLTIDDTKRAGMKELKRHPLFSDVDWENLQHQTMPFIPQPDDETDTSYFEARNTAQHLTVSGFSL
Excerpt: Recombinant GST-TAG-MASTL (Thermo Fisher Scientific, MA, USA) was used for HTRF-based kinase assays. The HTRF KinEASE assay kit (CisBio, MA, USA) was used according to the manufacturer's instructions.

[3] = in vitro; settings: human
Experimental: as §1

[4] = test system: pENSA; test: pENSA level by immunofluorescence (described method: in vitro kinase analysis with GST-tag-MASTL and His-tag-ENSA); format: cell-based; settings: compound 1 µM
Experimental: Two recombinant GST-tag-MASTL (Thermo Fisher Scientific) and His-tag-ENSA (Sino Biological Inc., Beijing, China) were used for in vitro kinase analysis. In vitro kinase analysis was performed as described in the literature [Front Oncol 2020, 10, 571601, 39-202021-10-20doi:10.3389/fonc.2020.571601.].
Phosphorylated ENSA (pENSA), which is activated by phosphorylation by MASTL, can be utilized as a biomarker as it is expected that its activity will be inhibited along with the inhibition of MASTL. In the cell viability assay, MCF7 refers to a breast cancer cell line, and MCF10A refers to a normal breast […] cell line.

CC(C)(C)OC(=O)N1CCN(c2nc(Nc3cc(C4CC4)[nH]n3)c3ccccc3n2)CC1 [compound 10, sdqs-butyl 4-(4-((5-cyclopropyl-1G-pyrazol-3-yl)amino)quinazolin-2-yl)piperazine-1-carboxylate]
viability at 1 µM [1]: 61.4% | IC50 [2]: 569 nM | activity at 1 µM ([2]; compound 1 µM): 24.1% | viability at 1 µM ([3]; mcf10a cells): 60.7% | pENSA (%) Immunofluor ecense (1 µM) [4]: 50.3%

Cc1cc(Nc2nc(N3CC4CC3CN4C(=O)C(C)C)nc3ccccc23)n[nH]1 (stereo not drawn) [compound 27c, 2-methyl-1-(5-(4-((5-methyl-1G-pyrazol-3-yl)amino)quinazolin-2-yl)-2,5-diazabicyclo[2.2.1]heptan-2-yl)propan-1-one]
viability at 1 µM [1]: 103% | activity at 1 µM ([2]; compound 1 µM): 102% | viability at 1 µM ([3]; mcf10a cells): 46.7% | pENSA (%) Immunofluor ecense (1 µM) [4]: 90.5%

CN(C)S(=O)(=O)c1ccc(Nc2nc(Nc3ccc(C(F)(F)F)cc3)nc3ccccc23)cc1 [compound 25c, M,M-dimethyl-4-((2-((4-(trifluoromethyl)phenyl)amino)quinazolin-4-yl)amino)benzenesulfonamide]
viability at 1 µM [1]: 86.4% | activity at 1 µM [2]: 108% | viability at 1 µM ([3]; mcf10a cells): 90% | pENSA (%) Immunofluor ecense (1 µM) [4]: 96.5%

C1=C(c2cccc3ccccc23)CCN(c2nc(Nc3cc(C4CC4)[nH]n3)c3ccccc3n2)C1 [compound 6i, M-(5-cyclopropyl-1G-pyrazol-3-yl)-2-(4-(naphthalen-1-yl)-3,6-dihydropyridin-1(2G)-yl)quinazolin-4-amine]
viability at 1 µM [1]: 113% | activity at 1 µM ([2]; compound 1 µM): 74.6% | viability at 1 µM ([3]; mcf10a cells): 122% | pENSA (%) Immunofluor ecense (1 µM) [4]: 97.2%

O=C(c1ccccc1)N1CC2CC1CN2c1nc(Nc2cc(C3CC3)[nH]n2)c2ccccc2n1 (stereo not drawn) [compound 15e, (5-(4-((5-cyclopropyl-1G-pyrazol-3-yl)amino)quinazolin-2-yl)-2,5-diazabicyclo[2.2.1]heptan-2-yl)(phenyl)methanone]
viability at 1 µM [1]: 68.3% | activity at 1 µM ([2]; compound 1 µM): 80% | viability at 1 µM ([3]; mcf10a cells): 31.3% | pENSA (%) Immunofluor ecense (1 µM) [4]: 48.2%

FC(F)(F)c1cc(Nc2nc(Nc3cc(C4CC4)[nH]n3)c3ccccc3n2)ccc1Cl [compound 4k, M^2-(4-chloro-3-(trifluoromethyl)phenyl)-M^4-(5-cyclopropyl-1G-pyrazol-3-yl)quinazoline-2,4-diamine]
viability at 1.25 µM [1]: 80.8% | activity at 10 µM [2]: 59.2% | viability at 1.25 µM ([3]; mcf10a cells): 115% | pENSA (%) Immunofluor ecense (1 µM) [4]: 105%

O=C1Cc2cc(Nc3nc(Nc4cc(C5CC5)[nH]n4)c4ccccc4n3)ccc2N1 [compound 4di, 5-((4-((5-cyclopropyl-1G-pyrazol-3-yl)amino)quinazolin-2-yl)amino)indolin-2-one]
viability at 1 µM [1]: 55.4% | activity at 1 µM ([2]; compound 1 µM): 38.8% | viability at 1 µM ([3]; mcf10a cells): 12.1% | pENSA (%) Immunofluor ecense (1 µM) [4]: 51.1%

c1ccc(CN2CC3CC2CN3c2nc(Nc3cc(C4CC4)[nH]n3)c3ccccc3n2)cc1 (stereo not drawn) [compound 15g, 2-(5-benzyl-2,5-diazabicyclo[2.2.1]heptan-2-yl)-M-(5-cyclopropyl-1G-pyrazol-3-yl)quinazolin-4-amine]
viability at 1 µM [1]: 54.4% | IC50 [2]: 225 nM | activity at 1 µM ([2]; compound 1 µM): 27.9% | viability at 1 µM ([3]; mcf10a cells): 42.9% | pENSA (%) Immunofluor ecense (1 µM) [4]: 65.6%

Cc1ccc(S(=O)(=O)N2CC3CC2CN3c2nc(Nc3cc(C4CC4)[nH]n3)c3ccccc3n2)cc1F (stereo not drawn) [compound 15w, M-(5-cyclopropyl-1G-pyrazol-3-yl)-2-(5-((3-fluoro-4-methylphenyl)sulfonyl)-2,5-diazabicyclo[2.2.1]heptan-2-yl)quinazolin-4-amine]
viability at 1 µM [1]: 93.5% | activity at 1 µM ([2]; compound 1 µM): 64.1% | viability at 1 µM ([3]; mcf10a cells): 107% | pENSA (%) Immunofluor ecense (1 µM) [4]: 86.2%

CC(C)(C)OC(=O)N1CC2(CCN(c3nc(Nc4cc(C5CC5)[nH]n4)c4ccccc4n3)CC2)C1 [compound 6c, sdqs-butyl 7-(4-((5-cyclopropyl-1G-pyrazol-3-yl)amino)quinazolin-2-yl)-2,7-diazaspiro[3.5]nonane-2-carboxylate]
viability at 1 µM [1]: 109% | IC50 [2]: 796 nM | activity at 1 µM ([2]; compound 1 µM): 32.9% | viability at 1 µM ([3]; mcf10a cells): 129% | pENSA (%) Immunofluor ecense (1 µM) [4]: 90.5%

CC(C)(C)OC(=O)NCCCNC(=O)c1ccc(Nc2nc(Nc3cc(C4CC4)[nH]n3)c3ccccc3n2)cc1 [4x, sdqs-butyl (3-(4-((4-((5-cyclopropyl-1G-pyrazol-3-yl)amino)quinazolin-2-yl)amino)benzamido)propyl)carbamate]
viability at 1 µM [1]: 75.8% | activity at 1 µM ([2]; compound 1 µM): 70.8% | viability at 1 µM ([3]; mcf10a cells): 80% | pENSA (%) Immunofluor ecense (1 µM) [4]: 185%

Cc1ccc(-c2nc3ccccc3s2)cc1Nc1nc(Nc2cc(C3CC3)[nH]n2)c2ccccc2n1 [compound 4l, M^2-(5-(benzo[c]thiazol-2-yl)-2-methylphenyl)-M^4-(5-cyclopropyl-1G-pyrazol-3-yl)quinazoline-2,4-diamine]
viability at 1 µM [1]: 100% | activity at 1 µM ([2]; compound 1 µM): 81.5% | viability at 1 µM ([3]; mcf10a cells): 118% | pENSA (%) Immunofluor ecense (1 µM) [4]: 88.6%

CC(C)(C)OC(=O)N1CC2C(C1)C2Nc1nc(Nc2cc(C3CC3)[nH]n2)c2ccccc2n1 (stereo not drawn) [4ag, sdqs-butyl 6-((4-((5-cyclopropyl-1G-pyrazol-3-yl)amino)quinazolin-2-yl)amino)-3-azabicyclo[3.1.0]hexane-3-carboxylate]
viability at 1 µM [1]: 56.4% | activity at 1 µM ([2]; compound 1 µM): 67.1% | viability at 1 µM ([3]; mcf10a cells): 74.5%

N#CCc1ccc(Nc2nc(Nc3ccccc3F)c3ccccc3n2)cc1 [compound 3k, 2-(4-((4-((2-fluorophenyl)amino)quinazolin-2-yl)amino)phenyl)acetonitrile]
viability at 1 µM [1]: 120% | activity at 1 µM ([2]; compound 1 µM): 99.1% | viability at 1 µM [3]: 96.6%

Cc1nn(C)c(C)c1Nc1nc(Nc2ccc(CC#N)cc2)nc2ccccc12 [3c, 2-(4-((4-((1,3,5-trimethyl-1G-pyrazol-4-yl)amino)quinazolin-2-yl)amino)phenyl)acetonitrile]
viability at 1.1 µM [1]: 110% | activity at 1 µM [2]: 123% | viability at 1.1 µM ([3]; mcf10a cells): 115%

N#CCc1ccc(Nc2nc(Nc3cccc(N)c3)c3ccccc3n2)cc1 [compound 3n, 2-(4-((4-((3-aminophenyl)amino)quinazolin-2-yl)amino)phenyl)acetonitrile]
viability at 1 µM [1]: 117% | activity at 1 µM ([2]; compound 1 µM): 125% | viability at 1 µM [3]: 95.2%

N#CCc1ccc(Nc2nc(Nc3cn[nH]c3)c3ccccc3n2)cc1 [compound 3f, 2-(4-((4-((1G-pyrazol-4-yl)amino)quinazolin-2-yl)amino)phenyl)acetonitrile]
viability at 1.1 µM [1]: 117% | activity at 1 µM [2]: 92.5% | viability at 1.1 µM ([3]; mcf10a cells): 98.3%

CNc1nc(Nc2cc(C3CC3)[nH]n2)c2ccccc2n1 [compound 4cb, N^4-(5-cyclopropyl-1H-pyrazol-3-yl)-N^2-methylquinazoline-2,4-diamine]
viability at 1.25 µM [1]: 87.5% | activity at 10 µM [2]: 53.1% | viability at 1.25 µM [3]: 102%

Cc1n[nH]c(C)c1Nc1nc(Nc2ccc(CC#N)cc2)nc2ccccc12 [compound 3d, 2-(4-((4-((3,5-dimethyl-1G-pyrazol-4-yl)amino)quinazolin-2-yl)amino)phenyl)acetonitrile]
viability at 1.1 µM [1]: 132% | activity at 1 µM [2]: 93.7% | viability at 1.1 µM ([3]; mcf10a cells): 101%

c1ccc2c(Nc3cc(C4CC4)[nH]n3)nc(Nc3ccc4cn[nH]c4c3)nc2c1 [compound 4de, N^4-(5-cyclopropyl-1H-pyrazol-3-yl)-N^2-(1H-indazol-6-yl)quinazoline-2,4-diamine]
viability at 1 µM [1]: 44.2% | activity at 1 µM ([2]; compound 1 µM): 31.8% | viability at 1 µM [3]: 24%

Source: patent EP4786466A1, “QUINAZOLINE DERIVATIVE, SALT THEREOF, AND PHARMACEUTICAL COMPOSITION COMPRISING SAME AS ACTIVE INGREDIENT” (Korea Research Institute of Chemical Technology, priority 2023, dated 2025)
